The values below come from patent US10556907B2 (AbbVie Inc., priority 2015, dated 2020).

Format in all cases: cell-based
Experiment [1] has as its target T1, human EDG3 (S1PR3) receptor (Homo sapiens, UniProt Q99500).
T1 construct: expressed in transfected cells; host or cells: CHO (cell pool CHO-A2-S1P3 Mix)
Kind of experiment: Method 2: Aequorin assay, cell pool CHO-A2-S1P3 Mix. The conditions noted are these: (2): determined with method 2. The method, then:
(§1) Agonistic activity was measured using two different methods, described below.
(§2) Genetically Engineered Cells
(§3) Cell clone CHO-A21-Edg1 #17 carries the transgenes human EDG1 (S1PR1) receptor (Accession number NP_001391.2), mitochondrially targeted Aequorin (active part corresponds to accession number 1SL8_A) and chimaeric Gaqi5=Gaq modified with the 5 C-terminal amino-acids replaced with those of the Gai protein (DCGLF). CHO-A2-S1P3 Mix is a cell pool ectopically expressing human EDG3 (S1PR3) receptor (Accession number NP_005217.2) mitochondrially targeted Aequorin (active part has a sequence similar to accession number AY601106.1) and GNA16 (Accession number NP_002059.3). Cell clone CHO-A21-EDG8 #12 carries the transgenes human EDG8 (S1PR5) receptor (Accession number NP_110387.1), mitochondrially expressed Aequorin (active part corresponds to accession number 1SL8_A) and chimaeric Gaqi5 (Gaq modified to present the 5 last amino-acids of the Gai protein “DCGLF”; see above). Cells are grown to mid-log phase in culture medium (HAM's F12, 10% FBS, 100 IU/mL penicillin, 100 μg/mL streptomycin, 250 μg/mL Zeocin, 400 μg/mL G418). 18 hours prior to frozen cells preparation, the medium is changed to remove the antibiotics.
(§4) 18 hours prior to the test, vials of frozen cells are quickly thawed in a 37° C. water bath, cells are recovered by centrifugation and resuspended in assay buffer (DMEM/HAM's F12 with HEPES, without phenol red+0.1% fatty acid-free BSA). Cells are gently agitated in suspension overnight at RT in presence of 5 μM of Coelenterazine h (Molecular Probes). On the day of the test, cells are diluted to their final working concentrations in assay buffer and agitated in suspension for 1 h at RT. Cells are then placed in the luminescence reader (Hamamatsu Functional Drug Screening System 6000, FDSS6000). During cells incubation, compounds are prepared in 100% DMSO, and subsequently diluted in assay buffer. Compounds are then dispensed in the assay plate (black, clear-bottom, 384-well plate). After binding of agonists to the human S1P receptor the intracellular calcium concentration increases and binding of calcium to the Aequorin/Coelenterazine complex leads to an oxidation reaction of coelenterazine, which results in the production of […], coelenteramide, CO2 and light (Dmax 469 nm). The luminescent response is dependent on the agonist concentration. For agonist testing, 30 μL of cell suspension are injected on 30 μL of test compound or reference agonist in the assay plate. The resulting emission of light is recorded for 90 seconds using the FDSS6000. Dose response curves with the reference compounds are performed before testing the compounds. S1P is the reference agonist and JTE-013 the reference antagonist for S1P2. […]
(§5) Luminescence data are integrated over the reading interval for agonist and antagonist modes. To standardize the emission of recorded light (determination of the “100% signal”) across plates and across different experiments, some of the wells contain 100 μM digitonin or a saturating concentration of ATP (20 μM). Plates also contain the reference agonist at a concentration equivalent to the EC80 obtained during the test validation and the EC100. Dose-response data from test compounds were analyzed with XLfit (IDBS) software using nonlinear regression applied to a sigmoidal dose-response model and the following equation: • XL Fit fit Model 203: 4 Parameter Logistic Model • A: Bottom • B: TOP • C: LogEC50 • D: Hill fit=(A+((B−A)/(1+(((10^C)/x)^D)))) inv=((10^C)/((((B−A)/(y−A))−1)^(1/D))) res=(y−fit)

Experiment [2] concerns the target T2, human EDG8 (S1PR5) receptor (Homo sapiens, UniProt Q9H228).
T2 construct: expressed in transfected cells; host or cells: CHO (clone CHO-A21-EDG8 #12)
Briefly: Method 2: Aequorin assay, cell clone CHO-A21-EDG8 #12. To be noted: agonist potency, determined with method 2 (symbols E-G); read-out: S1P5 EC50 range. The method, then: as §1, §2, §3, §4, §5

In experiment [3] the target is T3, human EDG1 (S1PR1) receptor (Homo sapiens, UniProt P21453).
T3 construct: expressed in transfected cells; host or cells: CHO (clone CHO-A21-Edg1 #17)
T3 sequence (P21453 whole entry): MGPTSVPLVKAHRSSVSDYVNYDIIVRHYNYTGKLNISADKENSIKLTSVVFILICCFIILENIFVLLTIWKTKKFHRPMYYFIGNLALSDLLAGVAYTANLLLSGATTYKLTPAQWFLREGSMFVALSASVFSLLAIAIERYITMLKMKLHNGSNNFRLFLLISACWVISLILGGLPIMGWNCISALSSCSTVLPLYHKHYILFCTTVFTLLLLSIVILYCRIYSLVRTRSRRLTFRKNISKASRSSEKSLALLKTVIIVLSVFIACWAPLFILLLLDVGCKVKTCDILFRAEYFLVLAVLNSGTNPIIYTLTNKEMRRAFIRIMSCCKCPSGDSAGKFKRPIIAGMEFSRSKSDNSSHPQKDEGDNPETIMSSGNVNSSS
Briefly: Method 2: Aequorin assay, cell clone CHO-A21-Edg1 #17. To be noted: (2): determined with method 2; read-out: S1P1 EC50. On the procedure: as §1, §2, §3, §4, §5

T2 sequence (Q9H228 whole entry): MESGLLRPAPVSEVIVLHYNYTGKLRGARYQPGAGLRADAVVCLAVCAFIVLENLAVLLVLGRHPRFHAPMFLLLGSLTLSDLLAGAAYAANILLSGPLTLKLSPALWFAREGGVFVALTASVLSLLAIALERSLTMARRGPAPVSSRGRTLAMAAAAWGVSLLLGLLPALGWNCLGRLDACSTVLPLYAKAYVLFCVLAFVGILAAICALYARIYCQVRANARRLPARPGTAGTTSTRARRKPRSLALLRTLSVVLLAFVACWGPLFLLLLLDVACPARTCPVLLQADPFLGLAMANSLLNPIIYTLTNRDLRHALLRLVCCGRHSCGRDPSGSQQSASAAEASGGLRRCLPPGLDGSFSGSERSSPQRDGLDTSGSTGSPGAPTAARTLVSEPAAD
T1 sequence (Q99500 whole entry): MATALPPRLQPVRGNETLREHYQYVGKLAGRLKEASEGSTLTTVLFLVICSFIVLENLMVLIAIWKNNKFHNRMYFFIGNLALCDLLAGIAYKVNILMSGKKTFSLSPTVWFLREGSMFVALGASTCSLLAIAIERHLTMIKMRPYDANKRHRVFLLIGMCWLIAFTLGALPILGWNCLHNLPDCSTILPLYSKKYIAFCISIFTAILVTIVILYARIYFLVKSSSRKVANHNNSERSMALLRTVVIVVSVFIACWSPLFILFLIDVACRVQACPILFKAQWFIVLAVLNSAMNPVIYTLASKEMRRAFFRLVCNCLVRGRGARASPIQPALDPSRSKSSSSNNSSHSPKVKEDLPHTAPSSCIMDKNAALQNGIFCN

Usually EC50 stands for the concentration at which the effect is half-maximal. In the case of `COc1cc(OCc2ccccc2)ccc1-c1ccc2c(n1)CCN(CCC(=O)O)C2` [Compound 138, 3-(2-(4-(benzyloxy)-2-methoxyphenyl)-7,8-dihydro-1,6-naphthyridin-6(5H)-yl)propanoic acid], the EC50 in experiment [1] was more than 1000 nM; in experiment [2], 1000 to 10000 nM; in experiment [3], more than 1000 nM.

With `O=C(O)CCN1CCc2nc(-c3ccc(OCc4ccccc4F)c(Cl)c3)ccc2C1` [Compound 141], the EC50 in experiment [1] is more than 1000 nM; in experiment [2] it was 100 to 1000 nM; in experiment [3], more than 1000 nM.

As for `O=C(O)CCN1CCc2nc(-c3ccc(OCc4ccc(F)cc4)c(Cl)c3)ccc2C1` [Compound 140, 3-(2-(3-chloro-4-((4-fluorobenzyl)oxy)phenyl)-7,8-dihydro-1,6-naphthyridin-6(5H)-yl)propanoic acid], the EC50 in experiment [1] was more than 1000 nM; in experiment [2], 100 to 1000 nM; in experiment [3] it was more than 1000 nM.

`O=C(O)CCN1CCc2nc(-c3ccc(OCc4c(Cl)cccc4Cl)cc3)ccc2C1` [Compound 130, 3-(2-(4-((2,6-dichlorobenzyl)oxy)phenyl)-7,8-dihydro-1,6-naphthyridin-6(5H)-yl)propanoic acid]: the half-maximal effective concentration (EC50) was more than 1000 nM in experiment [1], 100 to 1000 nM in experiment [2] and more than 1000 nM in experiment [3].

As for `O=C(O)CCN1CCc2nc(-c3ccc(OCc4cccc(F)c4F)cc3)ncc2C1` [Compound 69, 3-(2-(4-((2,3-difluorobenzyl)oxy)phenyl)-7,8-dihydropyrido[4,3-d]pyrimidin-6(5H)-yl)propanoic acid], the 50% effective concentration (EC50) was more than 1000 nM in experiment [1], 1000 to 10000 nM in experiment [2] and more than 1000 nM in experiment [3].

Turning to `O=C(O)CCN1CCc2nc(-c3ccc(OCc4ccccc4)cc3C(F)(F)F)ccc2C1` [Compound 136, 3-(2-(4-(benzyloxy)-2-trifluoromethylphenyl)-7,8-dihydro-1,6-naphthyridin-6(5H)-yl)propanoic acid], the EC50 was more than 1000 nM in experiment [1], 1000 to 10000 nM in experiment [2] and more than 1000 nM in experiment [3].

For the compound `O=C(O)CCN1CCc2nc(-c3ccc(OCc4cccc(F)c4F)cc3)ccc2C1` [Compound 131, 3-(2-(4-((2,3-difluorobenzyl)oxy)phenyl)-7,8-dihydro-1,6-naphthyridin-6(5H)-yl)propanoic acid], the EC50 in experiment [1] is more than 1000 nM; in experiment [2], less than 100 nM; in experiment [3] it was more than 1000 nM.

In the case of `CC(CN1CCc2cc(-c3ccc(OCc4ccccc4)cc3)nnc2C1)C(=O)O` (stereo not drawn) [Compound 206, 3-(3-(4-(benzyloxy)phenyl)-5,6-dihydropyrido[3,4-c]pyridazin-7(8H)-yl)-2-methylpropanoic acid], the EC50 is more than 1000 nM in experiment [1], 100 to 1000 nM in experiment [2] and more than 1000 nM in experiment [3].

As for `CC(CC(=O)O)N1CCc2nc(-c3ccc(OCc4ccccc4)cc3)ccc2C1` (stereo not drawn) [Compound 113, 3-(2-(4-(benzyloxy)phenyl)-7,8-dihydro-1,6-naphthyridin-6(5H)-yl)butanoic acid], the figures for the concentration giving a half-maximal response (EC50) in experiment [1], in experiment [2] and in experiment [3] were more than 1000 nM, 1000 to 10000 nM and more than 1000 nM, respectively.

Take `COc1cc(-c2ccc3c(n2)CCN(CCC(=O)O)C3)ccc1OCc1ccccc1` [Compound 142, 3-(2-(4-(benzyloxy)-3-methoxyphenyl)-7,8-dihydro-1,6-naphthyridin-6(5H)-yl)propanoic acid]: the concentration giving a half-maximal response (EC50) was more than 1000 nM in experiment [1], 1000 to 10000 nM in experiment [2] and more than 1000 nM in experiment [3].

As for `Cc1cc(OCc2ccccc2)ccc1-c1ccc2c(n1)CCN(CCC(=O)O)C2` [Compound 135, 3-(2-(4-(benzyloxy)-2-methylphenyl)-7,8-dihydro-1,6-naphthyridin-6(5H)-yl)propanoic acid], the half-maximal effective concentration (EC50) in experiment [1] was more than 1000 nM; in experiment [2], 1000 to 10000 nM; in experiment [3], more than 1000 nM.

Turning to `CC(CN1CCc2nc(-c3ccc(OCc4cc(F)cc(F)c4)cc3)ncc2C1)C(=O)O` (stereo not drawn) [Compound 9, 3-(2-(4-((3,5-difluorobenzyl)oxy)phenyl)-7,8-dihydropyrido[4,3-d]pyrimidin-6(5H)-yl)-2-methylpropanoic acid], the concentration giving a half-maximal response (EC50) was more than 1000 nM in experiment [1], 100 to 1000 nM in experiment [2] and more than 1000 nM in experiment [3].

Consider `O=C(O)CCN1CCc2nc(-c3ccc(OCc4ccccc4)c(C(F)(F)F)c3)ccc2C1` [Compound 143, 3-(2-(4-(benzyloxy)-3-trifluoromethylphenyl)-7,8-dihydro-1,6-naphthyridin-6(5H)-yl)propanoic acid], for which the EC50 in experiment [1] is more than 1000 nM; in experiment [2], 100 to 1000 nM; in experiment [3] it was more than 1000 nM.

Regarding `O=C(O)CCN1CCc2cc(-c3ccc(OCc4ccccc4)cc3)nnc2C1` [Compound 207, 3-(3-(4-(benzyloxy)phenyl)-5,6-dihydropyrido[3,4-c]pyridazin-7(8H)-yl)propanoic acid], the EC50 in experiment [1] is more than 1000 nM; in experiment [2] it was 1000 to 10000 nM; in experiment [3], more than 1000 nM.

On to `O=C(O)CCN1CCc2nc(-c3ccc(OCc4ccccc4)c(Cl)c3)ccc2C1` [Compound 144, 3-(2-(4-(benzyloxy)-3-chlorophenyl)-7,8-dihydro-1,6-naphthyridin-6(5H)-yl)propanoic acid], for which the concentration giving a half-maximal response (EC50) is more than 1000 nM in experiment [1], 100 to 1000 nM in experiment [2] and more than 1000 nM in experiment [3].

Turning to `CC(CN1CCc2nc(-c3ccc(OCc4ccccc4)cc3)ccc2C1)C(=O)O` (stereo not drawn) [Compound 101, 3-(2-(4-(benzyloxy)phenyl)-7,8-dihydro-1,6-naphthyridin-6(5H)-yl)-2-methylpropanoic acid], the results for the EC50 in experiment [1], in experiment [2] and in experiment [3] were more than 1000 nM, 100 to 1000 nM and more than 1000 nM, respectively.

Regarding `CC(CN1CCc2nc(-c3ccc(OCc4ccccc4)cc3)ncc2C1)C(=O)O` (stereo not drawn) [Compound 6, 3-(2-(4-(benzyloxy)phenyl)-7,8-dihydropyrido[4,3-d]pyrimidin-6(5H)-yl)-2-methylpropanoic acid], the EC50 in experiment [1] is more than 1000 nM; in experiment [2], 100 to 1000 nM; in experiment [3], more than 1000 nM.

Consider `CC(CN1Cc2ccc(-c3ccc(OCc4ccccc4)cc3)nc2C1)C(=O)O` (stereo not drawn) [Compound 199, 3-(2-(4-(benzyloxy)phenyl)-5H-pyrrolo[3,4-b]pyridin-6(7H)-yl)-2-methylpropanoic acid], for which the EC50 in experiment [1] is more than 1000 nM; in experiment [2], 1000 to 10000 nM; in experiment [3] it was more than 1000 nM.

Turning to `O=C(O)CCN1CCc2nc(-c3ccc(OCc4c(Cl)cccc4Cl)cc3)ncc2C1` [Compound 70, 3-(2-(4-((2,6-dichlorobenzyl)oxy)phenyl)-7,8-dihydropyrido[4,3-d]pyrimidin-6(5H)-yl)propanoic acid], the EC50 is more than 1000 nM in experiment [1], 100 to 1000 nM in experiment [2] and more than 1000 nM in experiment [3].

`Cc1cc(-c2ccc3c(n2)CCN(CCC(=O)O)C3)ccc1OCc1ccccc1` [Compound 139, 3-(2-(4-(benzyloxy)-3-methylphenyl)-7,8-dihydro-1,6-naphthyridin-6(5H)-yl)propanoic acid]: the EC50 was more than 1000 nM in experiment [1], 100 to 1000 nM in experiment [2] and more than 1000 nM in experiment [3].

As to `O=C(O)CCN1CCc2nc(-c3ccc(OCc4ccccc4)cc3F)ccc2C1` [Compound 134, 3-(2-(4-(benzyloxy)-2-fluorophenyl)-7,8-dihydro-1,6-naphthyridin-6(5H)-yl)propanoic acid], the values for the 50% effective concentration (EC50) in experiment [1], in experiment [2] and in experiment [3] were more than 1000 nM, less than 100 nM and more than 1000 nM, respectively.
